Test results taken from patent publication US11731933B2, “Device and method for the desalination of water by means of thermal deionisation and liquid-phase ion extraction liquid” (ADIONICS, priority 2015, dated 2023).
Several values for one entry are separate records, joined by “and”; a condition that tells them apart may be missing. Equal entries are not always repeated.

Experiments:
[1] = NaCl extraction from 0.4M NaCl water by ASM + Calix[4]Est in chloroform (Example 11); conditions: for NaCl - 20° C. % ext (average) / NaCl - 60° C. % ext (average): average molar extraction; for Mol % Cl- extracted from the water to be treated / Mol % Na+ extracted from the water to be treated: CEM 0.3 Mol/L, ASM 0.3 Mol/L in CHCl3, 0.4 M NaCl; for Δ % ext: difference 20° C. minus 60° C.
Experimental: The extraction composition is obtained by solubilizing an amount of 4-tert-butyl Calix[4]arene tetraethyl Ester (CAS No. 97600-39-0) and ASM in chloroform CHCl3 to obtain a final concentration after solubilization of the CEM and ASM of 0.3 mol/L for Calix[4]Est and of 0.3 mol/L for ASM, respectively. These sealed formulations were then orbitally stirred at 500 rpm for 2 hours after adding an equivalent volume of twice distilled water to allow water saturation of the entire formulation and control of pH output (pH=7). The extraction composition is then put to stand to settle. All the compositions tested are stable and rapidly decanted (a few minutes at the most).
A 0.4 mol/L NaCl aqueous solution was prepared from twice distilled water.
The organic extraction composition is then slightly heated to promote solubilization of the compounds by hot air gun (temperature of about 50 to 60° C.) for a few seconds (10 to 30 seconds) until a clear solution is obtained.
3 mL of the organic extraction composition is then removed from the lower phase of the settled two-phase mixture and transferred to a vial containing 3 mL of salt water at 0.4 M NaCl and then the flask is sealed and orbitally stirred (at 500 revolutions per minute), for 2 hours at room temperature (RT), that is to say between 20 and 25° C. In the case of extraction at 60° C., magnetic stirring (at 500 revolutions per minute), for 2 hours, is carried out with indirect heating in a metal mold on a heating plate. It is verified that droplets of the order of 1-2 mm are present during these agitations in order to be certain to achieve equilibrium in the NaCl distribution between the two liquid phases at the end of stirring. The appearance of the organic and aqueous phases is clear and colorless or slightly cloudy.
After stirring for 2 hours, stirring is stopped and the solution is put to stand to settle within 10 minutes, at least until the two phases have completely separated off, at the temperature of the test. The upper aqueous phase is then removed and then stirred and diluted for analysis of its salinity by a Metrohm Ion Chromatograph incorporating a suitable cation analysis column and a suitable anion analysis column. Similarly, the initial aqueous solution of NaCl at 0.4M is also analyzed by this ion chromatograph to determine its relative molar concentration in sodium and in chlorides. AN extractions and analyzes were duplicated.

[2] = methanol; cited from earlier work
[3] = NaCl extraction from 0.2M NaCl water by ASM/CEM composition, ion chromatography of treated water; conditions: ASM: 3TFMPhOH; CEM 0.2M; NaCl 0.2M water
Experimental: To 3 mL of 3-(trifluoromethyl)phenol, was added 217 mg of Dibenzo-18-crown-6 in order to obtain a formulation with 0.2 mole/L of DB18C6. This sealed formulation was then orbitally stirred at 500 rpm overnight after 1 mL of distilled water was added twice to allow water saturation of the whole.
The next morning, an aqueous 0.2 mol/L NaCl solution was prepared from twice distilled water, while the formulation that was stirred overnight was allowed to stand for decantation. A clear decantation of the two colorless phases is obtained in a few minutes. 3 mL of the organic extraction solution is then removed and transferred to a flask containing 3 mL of this salt water containing 0.2 M NaCl, then the flask is sealed and orbitally stirred (usually 500 rpm), for 3 hours and at room temperature. It is verified that droplets of the order of 1-2 mm are present in quantity at the selected stirring speed (400 to 900 rpm).
After stirring for 2 hours, stirring is stopped and the whole is left to stand for decantation for at least 10 minutes until the two phases are completely separated. The upper aqueous phase is then removed and then stirred and diluted for analysis of its salinity by a Metrohm Ion Chromatography Incorporating a suitable cation analysis column and a suitable anion analysis column. Similarly, the initial aqueous solution of 0.2M NaCl is also analyzed by this ion chromatography equipment to determine its relative concentration of sodium and chlorides. […]

[4] = methanol, published complexing constants; cited from earlier work

## CCCCCCCCCC(=O)Nc1cc(C(F)(F)F)cc(C(F)(F)F)c1 [ASMC9, N-[3,5-bis(trifluoromethyl)phenyl]decanamide]
[1]
  NaCl - 20° C. % ext (average): 24.4%
  Δ % ext: 17.9%
[1]; 60° C.
  Mol % Cl- extracted from the water to be treated: 6.9% and 8.0%
  Mol % Na+ extracted from the water to be treated: 5.4% and 5.7%
  NaCl - 60° C. % ext (average): 6.5%
[1]; RT
  Mol % Cl- extracted from the water to be treated: 27.1% and 23.8%
  Mol % Na+ extracted from the water to be treated: 25.2% and 21.7%

## CCCCCCCCCCCC(=O)Nc1cc(C(F)(F)F)cc(C(F)(F)F)c1 [ASMC11, N-[3,5-bis(trifluoromethyl)phenyl]dodecanamide]
[1]
  NaCl - 20° C. % ext (average): 23.8%
  Δ % ext: 18.0%
[1]; 60° C.
  Mol % Cl- extracted from the water to be treated: 4.9% and 7.7%
  Mol % Na+ extracted from the water to be treated: 3.4% and 7.1%
  NaCl - 60° C. % ext (average): 5.8%
[1]; RT
  Mol % Cl- extracted from the water to be treated: 24.5% and 25.3%
  Mol % Na+ extracted from the water to be treated: 22.4% and 23.1%

## CCCCCCCCCCCCCC(=O)Nc1cc(C(F)(F)F)cc(C(F)(F)F)c1 [ASMC13, N-[3,5-bis(trifluoromethyl)phenyl]tetradecanamide]
[1]
  NaCl - 20° C. % ext (average): 25.0%
  Δ % ext: 17.2%
[1]; 60° C.
  Mol % Cl- extracted from the water to be treated: 6.9% and 9.4%
  Mol % Na+ extracted from the water to be treated: 5.9% and 9.0%
  NaCl - 60° C. % ext (average): 7.8%
[1]; RT
  Mol % Cl- extracted from the water to be treated: 26.2% and 27.4%
  Mol % Na+ extracted from the water to be treated: 22.7% and 23.8%

## Nc1cc(C(F)(F)F)cc(C(F)(F)F)c1 [AnilineF*, 3,5-Di(trifluoromethyl)aniline, reference compound]
[1]
  NaCl - 20° C. % ext (average): 2.7%
  Δ % ext: 2.7%
[1]; 60° C.
  Mol % Cl- extracted from the water to be treated: not detected
  NaCl - 60° C. % ext (average): 0.0%
[1]; RT
  Mol % Cl- extracted from the water to be treated: 4.3% and 2.9%
  Mol % Na+ extracted from the water to be treated: 2.0% and 1.8%

## C1CCC2OCCOCCOCCOCCOC2C1 (centres unmarked) [C15C5, Perhydrobenzo[b]-1,4,7,10,′3-pentaoxacyclopentadecane]
[2]
  Log K(K+, MeOH, 25° C.): 3.96
[3]
  Extraction rate at 23° C., Cl−: 30.7%
  Extraction rate at 23° C., Na+: 21.0%
  Extraction rate at 23° C., mean NaCl: 26.0%
[4]
  Log K(Na+, MeOH, 25° C.): 3.71-3.9
